The test system of one test is Chorioallantoic membrane. In words: Inhibition of angiogenesis in chick embryo chorioallantoic membranes. In kind it is functional. Particulars: Gallus gallus.
Test [1] in a line: Antioxidant activity in human RBC assessed as inhibition of hydrogen peroxide-induced hemolysis after 3 hrs. As to conditions: erythrocyte. In kind it is functional, cell-based.
Test [2] deals with T1, Prostaglandin G/H synthase 2 (Mus musculus, UniProt Q05769).
T1 sequence (Q05769 whole entry): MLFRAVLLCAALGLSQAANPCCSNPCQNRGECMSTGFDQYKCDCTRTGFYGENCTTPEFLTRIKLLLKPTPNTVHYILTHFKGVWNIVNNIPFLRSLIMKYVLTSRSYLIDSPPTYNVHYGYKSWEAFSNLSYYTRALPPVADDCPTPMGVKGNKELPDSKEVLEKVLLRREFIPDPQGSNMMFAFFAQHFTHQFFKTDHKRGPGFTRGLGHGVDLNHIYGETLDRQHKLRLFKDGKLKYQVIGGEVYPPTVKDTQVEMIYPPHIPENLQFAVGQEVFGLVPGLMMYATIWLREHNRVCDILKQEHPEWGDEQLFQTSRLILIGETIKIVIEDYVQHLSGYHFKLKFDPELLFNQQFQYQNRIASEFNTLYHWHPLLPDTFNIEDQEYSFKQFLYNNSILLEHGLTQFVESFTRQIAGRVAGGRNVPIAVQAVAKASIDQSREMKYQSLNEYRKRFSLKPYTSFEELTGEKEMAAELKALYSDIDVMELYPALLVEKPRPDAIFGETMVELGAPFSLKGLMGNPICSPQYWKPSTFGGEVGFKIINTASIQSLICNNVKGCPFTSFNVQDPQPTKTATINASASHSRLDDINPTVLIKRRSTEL
In words: Inhibition of COX2-mediated PGE2 production in TNF-alpha-induced mouse MC3T3-E1 cells.

Another test relates to U-937. In words: Antiproliferative activity against human U937 cells.
A further test concerns Osteoclast. In words: Inhibition of osteoporotic lesion formation in ICR mouse osteoclasts bone cells using ivory pieces after 2 days by pit formation assay. In kind it is functional, cell-based. Particulars: 48 h.
The subject of test [3] is Radical scavenging activity. In words: Antioxidant activity assessed as DPPH radical scavenging activity. In kind it is functional.
A short description of test [4]: Antiangiogenic activity against bFGF-indeced mouse KOP2.16 cells assessed as reduction in cell growth at 10 uM. In kind it is functional.
Test [5] deals with Mus musculus. In words: Antiinflammatory activity in mouse assessed as inhibition of TPA-induced ear edema measured per ear. In kind it is functional.
Test [6] can be described thus: Antioxidant activity assessed as inhibition of lipid peroxidation. In kind it is functional.
Test [7] has as its system Mus musculus. In words: Antiangiogenic activity in mouse at 0.01%, po for 21 days. In kind it is functional.

The results in this text go back to ChEMBL document CHEMBL1781983, “Hop (Humulus lupulus)-derived bitter acids as multipotent bioactive compounds” (J Nat Prod, 2009).

`CC(C)=CCC1C(=O)C(C(=O)CC(C)C)=C(O)C(O)(CC=C(C)C)C1=O` (centres undefined) [HUMULONE] displayed an ED50 in the test on Chorioallantoic membrane of 1.5 µg. Also, the IC50 in test [1] amounted to 28 µM; in test [2], 0.03 µM; with U-937, 3.4 µM; in the test on Osteoclast, 0.0059 µM; in test [3], 32 µM; in [6] it was 7.9 µM. Also, the inhibition at 10 µM in test [4] was 20%. In the test on Mus musculus [5], the ID50 was 0.2 mg.
For `COc1ccc2c(c1)c(CC(=O)O)c(C)n2C(=O)c1ccc(Cl)cc1` [INDOMETHACIN], the ID50 with Mus musculus [5] was 0.3 mg.
As to `C[C@]12CCC(=O)C=C1CC[C@@H]1[C@@H]2[C@@H](O)C[C@@]2(C)[C@H]1CC[C@]2(O)C(=O)CO` [HYDROCORTISONE], in the test with Mus musculus [5], the ID50 amounted to 0.03 mg.
`CC(C)=CCC1=C(O)C(C(=O)CC(C)C)=C(O)C(CC=C(C)C)(CC=C(C)C)C1=O` [LUPULONE]: the “inhibition (INH)” value in the test on Mus musculus [7] is 50%. The IC50 in test [3] stood at 25 µM; in test [6], 39 µM.
